Assay results as given in US20240327430A1 (Breakpoint Therapeutics GmbH, priority 2023, published 2024).

Target: truncated Polθ protein (Polθ-Hel containing the helicase domain (67-894)) (Homo sapiens (Human), UniProt O75417)
Test: Polθ ATPase assay (Biological Assay 1, ADP-Glo luminescence)
Type: biochemical
Conditions: Polθ-Hel 0.5 nM, DNA substrate 500 nM, ATP 60 μM, 23° C.; read-out: Pole ATPase assay IC50
Method: The Polθ ATPase assay was used to evaluate inhibitors of Polθ ATPase activity, in vitro. Experiments were performed using a truncated Polθ protein (Polθ-Hel containing the helicase domain (67-894), ATP and a DNA single strand Oligo (5′-CTGTCCTGCATGATG-3′) in the Polθ assay buffer (20 mM Tis-HCl (pH 8.8), MgCl2 5 mM, tween20 0.01%, NP40 0.01%, BSA 0.01%, DTT 1 mM). 2 μL of assay buffer containing Pole-Hel protein (0.5 nM) and DNA substrate (500 nM) was transferred into assay ready plates, containing 0.04 μL of compounds diluted in DMSO. After a 30 minutes incubation at 23° C. in the dark, the reaction was triggered by adding 2 μL of ATP (60 μM), in assay buffer. After 60 minutes at 23° C., 4 μl of ADP-Glo™ Reagent (Glo 1) was added followed by 40 minutes of incubation, then 8 μl of ADP-Glom kinase Detection Reagent (Glo 2) followed by 60 minutes of incubation at 23° C. Luminescence was then measured using Tecan F200 infinite plate reader. Raw data were analysed using GeneData to generate IC50 values.
The Polθ ATPase assay described in Biological Assay 1 above was used to evaluate inhibitors of Polθ ATPase activity for the compounds described in the Experimental Part B above, in vitro.

truncated Polθ protein (Polθ-Hel containing the helicase domain (67-894)), sequence (O75417 67-894): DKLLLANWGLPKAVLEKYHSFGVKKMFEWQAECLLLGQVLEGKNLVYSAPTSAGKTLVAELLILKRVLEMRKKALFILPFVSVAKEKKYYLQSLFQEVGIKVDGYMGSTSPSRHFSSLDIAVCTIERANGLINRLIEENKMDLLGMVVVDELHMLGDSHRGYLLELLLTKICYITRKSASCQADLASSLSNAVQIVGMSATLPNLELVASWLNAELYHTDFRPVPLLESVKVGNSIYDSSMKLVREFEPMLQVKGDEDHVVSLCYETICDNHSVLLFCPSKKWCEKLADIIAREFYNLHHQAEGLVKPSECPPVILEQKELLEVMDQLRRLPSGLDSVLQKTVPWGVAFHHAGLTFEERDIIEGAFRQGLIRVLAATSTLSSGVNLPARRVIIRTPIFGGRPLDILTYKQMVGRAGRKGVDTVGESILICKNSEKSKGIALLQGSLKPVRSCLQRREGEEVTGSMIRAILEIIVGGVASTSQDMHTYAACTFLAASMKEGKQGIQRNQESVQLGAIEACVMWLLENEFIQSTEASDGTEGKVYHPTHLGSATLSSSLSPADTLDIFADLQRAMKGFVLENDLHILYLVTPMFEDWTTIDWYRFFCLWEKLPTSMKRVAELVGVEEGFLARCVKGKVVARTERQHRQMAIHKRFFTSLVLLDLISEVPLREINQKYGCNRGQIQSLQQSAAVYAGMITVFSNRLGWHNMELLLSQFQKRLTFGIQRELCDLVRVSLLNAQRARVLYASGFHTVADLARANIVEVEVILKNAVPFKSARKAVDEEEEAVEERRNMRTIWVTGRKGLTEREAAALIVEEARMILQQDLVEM

Question: Which IC50 does the source give for COc1cnc(Cl)cc1-c1cc(C)ncc1C(=O)Nc1nc2cnc(N3CCCCC3)nc2s1 [Example 20, 2′-chloro-5′-methoxy-6-methyl-N-[5-(piperidin-1-yl)-[1,3]thiazolo[5,4-d]pyrimidin-2-yl]-[4,4′-bipyridine]-3-carboxamide] here?
Answer: Its IC50 is under 100 nM.

Question: COc1cnc(Cl)cc1-c1cc(C)ncc1C(=O)Nc1nc2cnc(N3CCC(F)(F)CC3)nc2s1 [Example 21, 2′-chloro-N-[5-(4,4-difluoropiperidin-1-yl)-[1,3]thiazolo[5,4-d]pyrimidin-2-yl]-5′-methoxy-6-methyl-[4,4′-bipyridine]-3-carboxamide] was tested. Which IC50 did it give?
Answer: Its IC50 is under 100 nM.

Question: With COc1cnc(Cl)cc1-c1cc(C)ncc1C(=O)Nc1nc2cnc(N3CCOCC3)nc2s1 [Example 22, 2′-chloro-5′-methoxy-6-methyl-N-[5-(morpholin-4-yl)-[1,3]thiazolo[5,4-d]pyrimidin-2-yl]-[4,4′-bipyridine]-3-carboxamide] as the compound, how does the IC50 read?
Answer: The IC50 was under 100 nM.

Question: With COc1cnc(Cl)cc1-c1cc(C)ncc1C(=O)Nc1nc2cnc(N3CC[C@H](O)C3)nc2s1 [Example 23, 2′-chloro-N-{5-[(3S)-3-hydroxypyrrolidin-1-yl]-[1,3]thiazolo[5,4-d]pyrimidin-2-yl}-5′-methoxy-6-methyl-[4,4′-bipyridine]-3-carboxamide] as the compound, how does the IC50 read?
Answer: The IC50 was under 100 nM.

Question: COc1cnc(Cl)cc1-c1cc(C)ncc1C(=O)Nc1nc2cnc(N3CCCC3)nc2s1 [Example 24, 2′-chloro-5′-methoxy-6-methyl-N-[5-(pyrrolidin-1-yl)-[1,3]thiazolo[5,4-d]pyrimidin-2-yl]-[4,4′-bipyridine]-3-carboxamide] was tested. Which IC50 did it give?
Answer: The IC50 was under 100 nM.

Question: How did the IC50 turn out when COc1cnc(Cl)cc1-c1cc(C)ncc1C(=O)Nc1nc2cnc(N3CCC(F)(F)C3)nc2s1 [Example 25, 2′-chloro-N-[5-(3,3-difluoropyrrolidin-1-yl)-[1,3]thiazolo[5,4-d]pyrimidin-2-yl]-5′-methoxy-6-methyl-[4,4′-bipyridine]-3-carboxamide] was run?
Answer: The IC50 was under 100 nM.

Question: For COc1cnc(Cl)cc1-c1cc(C)ncc1C(=O)Nc1nc2cnc(N3CC[C@@H](O)C3)nc2s1 [Example 26, 2′-chloro-N-{5-[(3R)-3-hydroxypyrrolidin-1-yl]-[1,3]thiazolo[5,4-d]pyrimidin-2-yl}-5′-methoxy-6-methyl-[4,4′-bipyridine]-3-carboxamide], which IC50 is on record?
Answer: The IC50 was under 100 nM.

Question: Which IC50 does the source give for COc1cnc(Cl)cc1-c1cc(C)ncc1C(=O)Nc1nc2cnc(N3CCS(=O)(=O)CC3)nc2s1 [Example 27, 2′-chloro-N-[5-(1,1-dioxo-1λ^6-thiomorpholin-4-yl)-[1,3]thiazolo[5,4-d]pyrimidin-2-yl]-5′-methoxy-6-methyl-[4,4′-bipyridine]-3-carboxamide] here?
Answer: Its IC50 is under 100 nM.

Question: COc1cnc(Cl)cc1-c1cc(C)ncc1C(=O)Nc1nc2cnc(N3CCN(C)CC3)nc2s1 [Example 28, 2′-chloro-5′-methoxy-6-methyl-N-[5-(4-methylpiperazin-1-yl)-[1,3]thiazolo[5,4-d]pyrimidin-2-yl]-[4,4′-bipyridine]-3-carboxamide] was tested. Which IC50 did it give?
Answer: Its IC50 is under 100 nM.

Question: COc1cnc(Cl)cc1-c1cc(C)ncc1C(=O)Nc1nc2cnc(N3CC4(COC4)C3)nc2s1 [Example 29, 2′-chloro-5′-methoxy-6-methyl-N-(5-{2-oxa-6-azaspiro[3.3]heptan-6-yl}-[1,3]thiazolo[5,4-d]pyrimidin-2-yl)-[4,4′'-bipyridine]-3-carboxamide] was tested. Which IC50 did it give?
Answer: Its IC50 is under 100 nM.

Question: For COCCNc1ncc2nc(NC(=O)c3cnc(C)cc3-c3cc(Cl)ncc3OC)sc2n1 [Example 30, 2′-chloro-5′-methoxy-N-{5-[(2-methoxyethyl)amino]-[1,3]thiazolo[5,4-d]pyrimidin-2-yl}-6-methyl-[4,4′-bipyridine]-3-carboxamide], which IC50 is on record?
Answer: The IC50 was under 100 nM.

Question: Which IC50 does the source give for COc1cnc(Cl)cc1-c1cc(C)ncc1C(=O)Nc1nc2cnc(N3CC(O)C3)nc2s1 [Example 31, 2′-chloro-N-[5-(3-hydroxyazetidin-1-yl)-[1,3]thiazolo[5,4-d]pyrimidin-2-yl]-5′-methoxy-6-methyl-[4,4′-bipyridine]-3-carboxamide] here?
Answer: The IC50 was under 100 nM.

Question: For COc1cnc(Cl)cc1-c1cc(C)ncc1C(=O)Nc1nc2cnc(N3CCC(OC)C3)nc2s1 (centres unmarked) [Example 32, 2′-chloro-5′-methoxy-N-[5-(3-methoxypyrrolidin-1-yl)-[1,3]thiazolo[5,4-d]pyrimidin-2-yl]-6-methyl-[4,4′-bipyridine]-3-carboxamide], which IC50 is on record?
Answer: Its IC50 is under 100 nM.

Question: For COc1cnc(Cl)cc1-c1cc(C)ncc1C(=O)Nc1nc2cnc(N3CCC(O)CC3)nc2s1 [Example 33, 2′-chloro-N-[5-(4-hydroxypiperidin-1-yl)-[1,3]thiazolo[5,4-d]pyrimidin-2-yl]-5′-methoxy-6-methyl-[4,4′-bipyridine]-3-carboxamide], which IC50 is on record?
Answer: Its IC50 is under 100 nM.

Question: Which IC50 does the source give for COc1cnc(Cl)cc1-c1cc(C)ncc1C(=O)Nc1nc2cnc(N3C[C@@H]4C[C@H]3CO4)nc2s1 [Example 34, 2′-chloro-5′-methoxy-6-methyl-N-{5-[(1S,4S)-2-oxa-5-azabicyclo[2.2.1]heptan-5-yl]-[1,3]thiazolo[5,4-d]pyrimidin-2-yl}-[4,4′-bipyridine]-3-carboxamide] here?
Answer: The IC50 was under 100 nM.

Question: Which IC50 does the source give for COc1cnc(Cl)cc1-c1cc(C)ncc1C(=O)Nc1nc2cnc(N3CCCC(C#N)C3)nc2s1 (centres unmarked) [Example 35, 2′-chloro-N-[5-(3-cyanopiperidin-1-yl)-[1,3]thiazolo[5,4-d]pyrimidin-2-yl]-5′-methoxy-6-methyl-[4,4′-bipyridine]-3-carboxamide] here?
Answer: The IC50 was under 100 nM.

Question: COc1cnc(Cl)cc1-c1cc(C)ncc1C(=O)Nc1nc2ccc(N)cc2s1 [Example 36A, N-(6-amino-1,3-benzothiazol-2-yl)-4-(2-chloro-5-methoxy-4-pyridyl)-6-methyl-pyridine-3-carboxamide] was tested. Which IC50 did it give?
Answer: Its IC50 is 100 to 1000 nM.

Question: How did the IC50 turn out when COc1cnc(Cl)cc1-c1cc(C)ncc1C(=O)Nc1nc2ccc(N3CCCCC3=O)cc2s1 [Example 36B, 2′-chloro-5′-methoxy-6-methyl-N-[6-(2-oxopiperidin-1-yl)-1,3-benzothiazol-2-yl]-[4,4′-bipyridine]-3-carboxamide] was run?
Answer: Its IC50 is under 100 nM.

Question: How did the IC50 turn out when COc1cnc(Cl)cc1-c1cc(C)ncc1C(=O)Nc1nc2ccc(C3=CCCOC3)nc2s1 [Example 37, 2′-chloro-N-[5-(5,6-dihydro-2H-pyran-3-yl)-[1,3]thiazolo[5,4-b]pyridin-2-yl]-5′-methoxy-6-methyl-[4,4′-bipyridine]-3-carboxamide] was run?
Answer: Its IC50 is under 100 nM.

Question: For COc1cnc(Cl)cc1-c1cc(C)ncc1C(=O)Nc1nc2ccc(-c3ccc(Cl)cn3)cc2s1 [Example 38, 2′-chloro-N-[6-(5-chloropyridin-2-yl)-1,3-benzothiazol-2-yl]-5′-methoxy-6-methyl-[4,4′-bipyridine]-3-carboxamide], which IC50 is on record?
Answer: Its IC50 is under 100 nM.

Question: Which IC50 does the source give for COc1ccccc1-c1cnccc1C(=O)Nc1nc2ccc(-c3ccc(Cl)cn3)cc2s1 [Example 39, N-[6-(5-chloropyridin-2-yl)-1,3-benzothiazol-2-yl]-3-(2-methoxyphenyl)pyridine-4-carboxamide] here?
Answer: Its IC50 is 100 to 1000 nM.

Question: COc1cnc(Cl)cc1-c1cc(C)ncc1C(=O)Nc1nc2ccc(C3(O)CCOC3)cc2s1 (centres unmarked) [Example 40, 2′-chloro-N-[6-(3-hydroxyoxolan-3-yl)-1,3-benzothiazol-2-yl]-5′-methoxy-6-methyl-[4,4′-bipyridine]-3-carboxamide] was tested. Which IC50 did it give?
Answer: The IC50 was 100 to 1000 nM.

Question: Which IC50 does the source give for COc1cnc(Cl)cc1-c1cc(C)ncc1C(=O)Nc1nc2ccc(NS(C)(=O)=O)cc2s1 [Example 41, 2′-chloro-N-(6-methanesulfonamido-1,3-benzothiazol-2-yl)-5′-methoxy-6-methyl-[4,4′-bipyridine]-3-carboxamide] here?
Answer: The IC50 was under 100 nM.

Question: For COc1cnc(Cl)cc1-c1cc(C)ncc1C(=O)Nc1nc2cncnc2s1 [Example 42, 2′-chloro-5′-methoxy-6-methyl-N-{[1,3]thiazolo[5,4-d]pyrimidin-2-yl}-[4,4′-bipyridine]-3-carboxamide], which IC50 is on record?
Answer: Its IC50 is under 100 nM.

Question: COc1cnc(Cl)cc1-c1cc(C)ncc1C(=O)Nc1nc2ccc(SC)cc2s1 [Example 43, 2′-chloro-5′-methoxy-6-methyl-N-[6-(methylsulfanyl)-1,3-benzothiazol-2-yl]-[4,4′-bipyridine]-3-carboxamide] was tested. Which IC50 did it give?
Answer: The IC50 was under 100 nM.

Question: How did the IC50 turn out when COc1cnc(Cl)cc1-c1cc(C)ncc1C(=O)Nc1nc2ccncc2s1 [Example 44, 2′-chloro-5′-methoxy-6-methyl-N-{[1,3]thiazolo[5,4-c]pyridin-2-yl}-[4,4′-bipyridine]-3-carboxamide] was run?
Answer: The IC50 was under 100 nM.

Question: Which IC50 does the source give for COc1cnc(Cl)cc1-c1cc(C)ncc1C(=O)Nc1nc2cnc(N3CCN(C(C)=O)CC3)nc2s1 [Example 45, N-[5-(4-acetylpiperazin-1-yl)-[1,3]thiazolo[5,4-d]pyrimidin-2-yl]-2′-chloro-5′-methoxy-6-methyl-[4,4′-bipyridine]-3-carboxamide] here?
Answer: Its IC50 is under 100 nM.

Question: With COc1cnc(Cl)cc1-c1cc(C)ncc1C(=O)Nc1nc2cnc(NCCO)nc2s1 [Example 46, 2′-chloro-N-{5-[(2-hydroxyethyl)amino]-[1,3]thiazolo[5,4-d]pyrimidin-2-yl}-5′-methoxy-6-methyl-[4,4′-bipyridine]-3-carboxamide] as the compound, how does the IC50 read?
Answer: The IC50 was under 100 nM.

Question: Which IC50 does the source give for COc1cnc(Cl)cc1-c1cc(C)ncc1C(=O)Nc1nc2cnc(N3CC(OC)C3)nc2s1 [Example 47, 2′-chloro-5′-methoxy-N-[5-(3-methoxyazetidin-1-yl)-[1,3]thiazolo[5,4-d]pyrimidin-2-yl]-6-methyl-[4,4′-bipyridine]-3-carboxamide] here?
Answer: Its IC50 is under 100 nM.
